Reference: patent US20100004174A1, “USE OF THYMOSIN ALPHA 1 FOR THE PREPARATION OF A MEDICAMENT FOR THE PREVENTION AND TREATMENT OF AUTOIMMUNE DISEASES” (SIGMA-TAU INDUSTRIE FARMACEUTICHE, priority 2006, published 2010)
No end group written: not given here.

Assays:
TNBS colitis = experiment: TNBS-induced colitis model of IBD (DAS, MAS, MPO); format: in vivo, mice
Experimental: To this end, an IBD model was used envisaging the induction of the disease by intracolonic administration of a haptenised derivative of trinitrobenzene sulfonic acid (TNBS). The animals were treated with thymosin alpha 1, whose efficacy was evaluated according to clinical, histological and immunological parameters.
The application of hapten TNBS in the colon causes acute and chronic colitis in the rodents (Fiorucci S, Antonelli E, Distrutti E, Del Soldato P, Flower R J, Clark M J, Morelli A, Perretti M, Ignarro L J. NCX-1015, a nitric-oxide derivative of prednisolone, enhances regulatory T cells in the lamina propria and protects against 2,4,6-trinitrobenzene sulfonic acid-induced colitis in mice. Proc Natl Acad Sci U S A. 2002, 99:15770-5).
The animals were monitored daily for any onset of diarrhea, loss of body weight, blood in the faeces and to check their survival (correlated with the degree of activity of the disease, DAS). At the end of the experiment, the surviving mice were sacrificed, their colon dissected and the microscopic damage was evaluated (called mucosal activity score—MAS). The tissue segments were then used in order to measure the Myeloperoxidase (MPO) activity (an inflammation index).
The sectioned colons were examined under a microscope (×5) and classified according to their microscopic lesions on a scale from 0 to 10 based on criteria reflecting the inflammation, such as hyperemia, bowel thickening, and extension of ulcers.
MPO assays. Neutrophil infiltration in the colon was monitored by measuring MPO activity by means of a spectrophotometric assay with trimethylbenzidine (TMB) as a substrate according to a previously published method (Fiorucci S, Antonelli E, Distrutti E, Del Soldato P, Flower R J, Clark M J, Morelli A, Perretti M, Ignarro L J. NCX-1015, a nitric-oxide derivative of prednisolone, enhances regulatory T cells in the lamina propria and protects against 2,4,6-trinitrobenzene sulfonic acid-induced colitis in mice. Proc Natl Acad Sci U S A. 2002, 99:15770-5). The activity is expressed in U per mg of protein.
(§1) Treatment with thymosin alpha 1. Tα1 (purchased from Sigma, St. Louis, Mo., USA; product no. T3410; molecular formula C129H215N33O55) and the scrambled peptide were provided in the form of sterile dried powders. The powders were reconstituted in sterile water (endotoxin levels were <0.03 pg/ml, by standard Limulus lysate assay). Thymosin alpha 1 was administered at a dosage of 200 microgrammi/kg by intraperitoneal injection for 6 consecutive days starting from the day of TNBS colitis induction.
(§2) All the inflammatory and cytokine assessments were carried out the day after the end of treatment with thymosin alpha 1.

[1] = tested on: EAE (experimental autoimmune encephalitis); experiment: EAE model induced with MOG35-55 peptide in mice, clinical score and spinal cord histology; format: in vivo, C57BL6 mice
Experimental: To this end, an EAE model was used envisaging the induction of disease by administering a peptide deriving from myelin in susceptible animals. The anima were treated with thymosin alpha 1, whose efficiency was evaluated according to clinical and histological parameters.
EAE is induced in C57BL6 mice by injecting 100 microlitres of emulsion consisting of 100 microgrammes of MOG35-55 (a peptide fragment of a myelinic glycoprotein) in complete Freund adjuvant (CFA, 4 microgrammes/ml) at the base of the tail. EAE induction is favoured by the intraperitoneal administration of the pertoxic toxin at a dosage of 200 ng/mouse the day of immunisation and three days later. The treatment with thymosin alpha 1 (200 ng/Kg) is carried out via intraperitoneal injection according to two experimental designs. In the first case, thymosin is administered starting from the day of MOG administration and for three consecutive days thereafter (Tα1+MOG). In the second case, thymosin is administered starting from the tenth day after MOG administration and for three consecutive days thereafter (MOG+Tα1).
The mice were clinically evaluated daily according to the following parameters: 0, normal; 1, flacid tail or weakness of hind legs; 2, flacid tail associated with weakness of hind legs; 3, partial paralysis of hind legs; 4, total paralysis of hind legs; 5, moribund state. […]

[2] = tested on: CD4+CD25+ lymphocytes isolated from the lamina propria; experiment: Cytokine determination by ELISA on CD4+CD25+ lamina propria lymphocytes of mice with TNBS colitis; format: in vivo; conditions: TNBS+Tα1 mice; cells stimulated in vitro 48 h with anti-CD3 and anti-CD28, FIG. 4
Experimental: as §1
Cytokine determination. This was carried out via specific ELISA tests (ELISA kit, R&D Systems Inc, Minneapolis, Minn.) on the supernatants of lymphocyte cell cultures of CD4^+CD^25+ phenotype isolated from the lamina propria and stimulated in vitro for 48 h with antibodies directed against CD3 and CD28 molecules expressed on the lymphocytes (PharMingen, BD, Palo Alto, Calif.).
as §2

[3] = TNBS colitis, 200 microgrammi/kg intraperitoneal for 6 consecutive days, assessed the day after end of treatment, FIG. 3

In the case of “thymosin alpha 1 (Ac-SDAAVDTSSEITTKDLKEKKEVVEEAEN; ends and bridges not checked; UniProt P06454 2-29, looked up) [thymic peptide found in nature; purchased from Sigma, product no; T3410]”, the “DAS (degree of activity of the disease)” value (TNBS colitis; [3]) is reported as “drastic reduction”, the “MAS (mucosal activity score)” value (TNBS colitis; [3]) is reported as “drastic reduction” and the “MPO (myeloperoxidase) activity in colon” value (TNBS colitis; [3]) is reported as “drastic reduction”. The “overall effect on the severity of IBD” value (TNBS colitis; experimental models of colitis, conclusion) was “protective effect”, the “de-myelination, histological analysis of semifine spinal chord sections coloured with osmium tetroxide” value ([1]; MOG-immunised mice treated with thymosin alpha 1, FIG. 2) was “no significant sign of de-myelination” and the “overall effect on EAE incidence and neuropathological severity” value ([1]; conclusion from FIG. 1 and FIG. 2) was “protective effect”. For the same substance, the IL-10 production [2] was “clear prevalence of IL-10 production” and the “inflammatory/anti-inflammatory cytokine production pattern (IFN-γ, IL-17, IL-10)” value [2] was “significantly disrupted”.
